# Publication PMC8307317, “Point-Substitution of Phenylalanine Residues of 26RFa Neuropeptide: A Structure-Activity Relationship Study” (Molecules, 2021)
# Non-standard residues stand in square brackets, D forms with d. Residues, ends and D or L forms follow the SMILES beside them. ξ: configuration not given here. Phe(4-NO2) = N[C@@H](Cc1ccc([N+](=O)[O-])cc1)C(=O)O; NMeF = CN[C@@H](Cc1ccccc1)C(=O)O; Tic = O=C(O)[C@@H]1Cc2ccccc2CN1; ξPhg = NC(C(=O)O)c1ccccc1
# Target: T1, human QRFPR (hQRFPR) (Homo sapiens, UniProt Q96P65)
# T1 construct: expressed in transfected cells; host or cells: CHO cells, stably transfected with hQRFPR (G418 selection) and Gα16 (hygromycin B selection)
# T1 sequence (Q96P65 1-431): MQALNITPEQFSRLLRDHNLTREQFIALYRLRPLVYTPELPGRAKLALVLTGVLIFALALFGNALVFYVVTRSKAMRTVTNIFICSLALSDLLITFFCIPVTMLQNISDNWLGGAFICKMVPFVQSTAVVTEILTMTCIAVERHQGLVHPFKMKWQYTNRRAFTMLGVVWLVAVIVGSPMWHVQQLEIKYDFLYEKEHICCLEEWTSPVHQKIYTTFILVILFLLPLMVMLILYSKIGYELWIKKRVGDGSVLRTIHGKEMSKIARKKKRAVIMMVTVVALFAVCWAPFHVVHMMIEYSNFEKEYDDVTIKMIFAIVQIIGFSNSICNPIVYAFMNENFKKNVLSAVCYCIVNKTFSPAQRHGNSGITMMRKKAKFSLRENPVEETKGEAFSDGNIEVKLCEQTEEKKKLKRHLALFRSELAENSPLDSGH
# Assay: Calcium mobilization assay, agonist mode ([Ca2+]i in Gα16-hQRFPR-transfected CHO cells)
# Format: cell-based
# Conditions: [Ca2+]i mobilization in Gα16-hQRFPR-transfected CHO cells; mean of at least three independent experiments performed in triplicate; read-out: EC50
# Procedure: Stably transfected hQRFPR CHO cells were obtained as previously described. The cells were maintained in F-12 nutrient mixture (Ham-F12) medium supplemented with 10% fetal bovine serum, 2 mM glutamine, and penicillin-streptomycin. Expression of Gα16 cells was maintained using selection antibiotic hygromycin B (200 µg/mL) and that of hQRFPR using geneticin G418 (500 µg/mL) (Life Technologies, Villebon-Sur-Yvette, France) in a humidified 5% CO2 atmosphere at 37 °C.
# Changes in intracellular Ca^2+ concentrations induced by 26RFa(20–26) analogs in CHO-Gα16-hQRFPR-transfected cells were measured on a benchtop scanning fluorometer Flexstation III (Molecular Devices, Sunnyvale, CA, USA) as previously described. Briefly, 96-well assay black plates with clear bottoms (Corning international, Avon, France) were seeded at a density of 40,000 cells/well 24 h prior to assay. For profiling agonistic experiments, cells were loaded with 2 µM Fluo-4 acetoxymethyl ester (AM) (Invitrogen) for 1 h in the presence of 0.01% pluronic acid, washed thrice, and incubated for 30 min with standard HBSS containing 2.5 mM probenecid and 5 mM HEPES. Compounds to be tested were added at final concentrations ranging from 10^−11 to 10^−5 M in HBSS, and the fluorescence intensity was measured during 3 min. To evaluate the antagonistic potency of the test compounds, cells were incubated with each compound over 15 min after Fluo-4 AM loading. Then, during fluorescence recording, a pulse of 26RFa was administered at a final concentration of 10^−7 M. After subtraction of the mean fluorescence background, the baseline was normalized to 100%. Fluorescence peak values were determined for each concentration of compound.
# Calcium experiments were performed in triplicate, and data, expressed as mean ± SEM of at least three distinct experiments, were analyzed with the Prism 8.0 software (Graphpad Software, San Diego, CA, USA). EC50 and the IC50 values were determined from concentration–response curves using a sigmoidal dose–response fit with variable slope from at least three independent determinations. Differences between 26RFa(20–26) and analog activities were analyzed by the Mann–Whitney test. p values < 0.05 were considered significant.
row,EC50,Compound
1,> 10 µM,"N=C(N)NCCC[C@H](NC(=O)[C@H](Cc1ccc([N+](=O)[O-])cc1)NC(=O)[C@H](CO)NC(=O)[C@H](Cc1ccccc1)NC(=O)CNC(=O)CN)C(=O)N[C@@H](Cc1ccccc1)C(N)=O [Compound 18, [pNO2Phe^24]26RFa(20–26)] (H-GGFS[Phe(4-NO2)]RF-NH2)"
2,0.491 µM,"N=C(N)NCCC[C@H](NC(=O)[C@H](Cc1ccccc1)NC(=O)[C@H](CO)NC(=O)[C@H](Cc1ccccc1)NC(=O)CNC(=O)CN)C(=O)N[C@@H](Cc1ccc([N+](=O)[O-])cc1)C(N)=O [Compound 19, [pNO2Phe^26]26RFa(20–26)] (H-GGFSFR[Phe(4-NO2)]-NH2)"
3,5.01 µM,"N=C(N)NCCC[C@H](NC(=O)[C@H](Cc1ccccc1)NC(=O)[C@H](CO)NC(=O)C(NC(=O)CNC(=O)CN)c1ccccc1)C(=O)N[C@@H](Cc1ccccc1)C(N)=O (stereo partly shown) [Compound 20, [Phg^22]26RFa(20–26)] (H-GG[ξPhg]SFRF-NH2)"
4,> 10 µM,"N=C(N)NCCC[C@H](NC(=O)C(NC(=O)[C@H](CO)NC(=O)[C@H](Cc1ccccc1)NC(=O)CNC(=O)CN)c1ccccc1)C(=O)N[C@@H](Cc1ccccc1)C(N)=O (stereo partly shown) [Compound 21, [Phg^24]26RFa(20–26)] (H-GGFS[ξPhg]RF-NH2)"
5,> 10 µM,"N=C(N)NCCC[C@H](NC(=O)C(NC(=O)[C@H](CO)NC(=O)[C@H](Cc1ccccc1)NC(=O)CNC(=O)CN)c1ccccc1)C(=O)N[C@@H](Cc1ccccc1)C(N)=O (stereo partly shown) [Compound 22, [Phg^24]26RFa(20–26)] (H-GGFS[ξPhg]RF-NH2)"
6,> 10 µM,"N=C(N)NCCC[C@H](NC(=O)[C@H](Cc1ccccc1)NC(=O)[C@H](CO)NC(=O)[C@H](Cc1ccccc1)NC(=O)CNC(=O)CN)C(=O)NC(C(N)=O)c1ccccc1 (stereo partly shown) [Compound 23, [Phg^26]26RFa(20–26)] (H-GGFSFR[ξPhg]-NH2)"
7,> 10 µM,"N=C(N)NCCC[C@H](NC(=O)[C@H](Cc1ccccc1)NC(=O)[C@H](CO)NC(=O)[C@H](Cc1ccccc1)NC(=O)CNC(=O)CN)C(=O)NC(C(N)=O)c1ccccc1 (stereo partly shown) [Compound 24, [Phg^26]26RFa(20–26)] (H-GGFSFR[ξPhg]-NH2)"
8,15.1 µM,"CN(C(=O)CNC(=O)CN)[C@@H](Cc1ccccc1)C(=O)N[C@@H](CO)C(=O)N[C@@H](Cc1ccccc1)C(=O)N[C@@H](CCCNC(=N)N)C(=O)N[C@@H](Cc1ccccc1)C(N)=O [Compound 25, [NMePhe^22]26RFa(20–26)] (H-GG[NMeF]SFRF-NH2)"
9,1.36 µM,"CN(C(=O)[C@H](CO)NC(=O)[C@H](Cc1ccccc1)NC(=O)CNC(=O)CN)[C@@H](Cc1ccccc1)C(=O)N[C@@H](CCCNC(=N)N)C(=O)N[C@@H](Cc1ccccc1)C(N)=O [Compound 26, [NMePhe^24]26RFa(20–26)] (H-GGFS[NMeF]RF-NH2)"
10,> 10 µM,"CN(C(=O)[C@H](CCCNC(=N)N)NC(=O)[C@H](Cc1ccccc1)NC(=O)[C@H](CO)NC(=O)[C@H](Cc1ccccc1)NC(=O)CNC(=O)CN)[C@@H](Cc1ccccc1)C(N)=O [Compound 27, [NMePhe^26]26RFa(20–26)] (H-GGFSFR[NMeF]-NH2)"
11,0.327 µM,"N=C(N)NCCC[C@H](NC(=O)[C@H](Cc1ccccc1)NC(=O)[C@H](CO)NC(=O)[C@@H]1Cc2ccccc2CN1C(=O)CNC(=O)CN)C(=O)N[C@@H](Cc1ccccc1)C(N)=O [Compound 28, [Tic^22]26RFa(20–26)] (H-GG[Tic]SFRF-NH2)"
12,> 10 µM,"N=C(N)NCCC[C@H](NC(=O)[C@@H]1Cc2ccccc2CN1C(=O)[C@H](CO)NC(=O)[C@H](Cc1ccccc1)NC(=O)CNC(=O)CN)C(=O)N[C@@H](Cc1ccccc1)C(N)=O [Compound 29, [Tic^24]26RFa(20–26)] (H-GGFS[Tic]RF-NH2)"
13,7.7 µM,"N=C(N)NCCC[C@H](NC(=O)[C@H](Cc1ccccc1)NC(=O)[C@H](CO)NC(=O)[C@H](Cc1ccccc1)NC(=O)CNC(=O)CN)C(=O)N1Cc2ccccc2C[C@H]1C(N)=O [Compound 30, [Tic^26]26RFa(20–26)] (H-GGFSFR[Tic]-NH2)"

# Same assay, conditions: [Ca2+]i mobilization; N-methylated analogs; read-out: EC50
row,EC50,Compound
1,> 10 µM,"CN(C(=O)CNC(=O)CN)[C@@H](Cc1ccccc1)C(=O)N[C@@H](CO)C(=O)N[C@@H](Cc1ccccc1)C(=O)N[C@@H](CCCNC(=N)N)C(=O)N[C@@H](Cc1ccccc1)C(N)=O [Compound 25, [NMePhe^22]26RFa(20–26)] (H-GG[NMeF]SFRF-NH2)"

# Same assay, conditions: single prototype curve, triplicate; basal [Ca2+]i mobilization; read-out: EC50 calculated from representative dose–response curves (Figure 3)
row,EC50,Compound
1,0.489 µM,"N=C(N)NCCC[C@H](NC(=O)[C@H](Cc1ccccc1)NC(=O)[C@H](CO)NC(=O)[C@H](Cc1ccccc1)NC(=O)CNC(=O)CN)C(=O)N[C@@H](Cc1ccc([N+](=O)[O-])cc1)C(N)=O [Compound 19, [pNO2Phe^26]26RFa(20–26)] (H-GGFSFR[Phe(4-NO2)]-NH2)"
2,0.305 µM,"N=C(N)NCCC[C@H](NC(=O)[C@H](Cc1ccccc1)NC(=O)[C@H](CO)NC(=O)[C@@H]1Cc2ccccc2CN1C(=O)CNC(=O)CN)C(=O)N[C@@H](Cc1ccccc1)C(N)=O [Compound 28, [Tic^22]26RFa(20–26)] (H-GG[Tic]SFRF-NH2)"
